The values that follow are results of earlier work, collected in patent US20170020838A1, “TREATMENT FOR RESPIRATORY DISEASE” (MUCOKINETICA LIMITED, priority 2014, published 2017).

This series deals with airway ENaC. The note with it: Bridges et al. 2001; cited from earlier work.

For aprotinin, the “effect on airway ENaC activity” value is “Down regulation”.
